Measured values from patent publication US9173876B2, “Preparation and therapeutic applications of (2S,3R)-N-2-((3-pyridinyl)methyl)-1-azabicyclo[2.2.2]oct-3-yl)-3,5-difluorobenzamide” (Targacept, Inc., priority 2009, dated 2015).

Columns and labels:
[1] = tested on: STZ rat model of diabetic neuropathy; assay: Streptozotocin (STZ)-induced diabetic neuropathy, Von Frey allodynia; format: in vivo; conditions: 150 mg/kg i.p.
Experimental: Diabetes was induced by a 0.5 ml injection of streptozotocin (60 mg/kg) dissolved in citrate buffer (pH=6) into the tail vein of each rat. The development of diabetes was confirmed by measuring the blood glucose levels (BGL) of all animals on study day 3 (BGL>300 mg/dL). […] These animals were tested again for their BGL at study day 23.
(2S,3R)—N-2-((3-pyridinyl)methyl)-1-azabicyclo[2.2.2]oct-3-yl)-3,5-difluorobenzamide (0.1, 1 or 10 mg/kg p.o.) was administered as a solution of the hydrochloride salt in water once daily starting on study day 14 or study day 16 and continuing through study day 21 or 23, respectively. The control article gabapentin (in 0.9% saline, 150 mg/kg i.p.) was only administered on allodynia test days. Test item, vehicle or control article administration was based on evaluation of allodynia on study day 14. If allodynia was not present on study day 14, the animal was evaluated again at study day 16. Pain response was measured either on study days 14 and 21 or 16 and 23, 30 minutes after Test Item administration.
For the allodynia assessments, Von Frey filaments were used according to the methods of Chaplan and colleagues (1994). Briefly, the rats were placed in an enclosure and positioned on a metal mesh surface, but allowed to move freely. The rats' cabins were covered with red cellophane to diminish environmental distributions. The test began after cessation of exploratory behavior.
When the tip of a Von Frey fiber of given length and diameter was pressed against the skin at right angles, the force of application increases as long as the researcher continued to advance the probe until the fiber bent. After the fiber bent, the probe was advanced, causing the fiber to bend more, but without additional force being applied. The animal would indicate sensation by pulling back its paw. In the absence of a paw withdrawal response to the initially selected filament, a stronger stimulus was presented: in the event of paw withdrawal, the next weaker stimulus was chosen. In this fashion, the resulting pattern of positive and negative responses was used to determine the paw withdrawal threshold.
The set of Von Frey monofilaments provide an approximate logarithmic scale of actual force and a linear scale of perceived intensity. Below is a table showing the force (g) and its corresponding size of monofilaments.
All normally distributed data are presented as means±SEM, as well as the animals' individual values followed by a student T-test (Software: Microsoft® Excel). A p value<0.05 is considered to represent a significant difference. Due to the non-normal distribution of the allodynia data, descriptions of those data are provided as both mean (+SEM) and median values in order to represent their imprecise nature and skewed distribution.

[2] = cited from earlier work
CD-1 mice = assay: Formalin test; format: in vivo, mouse; conditions: positive control, 5 mg/kg s.c.
Experimental: Subjects (adult male CD-1 mice (Charles River, Raleigh, N.C.) weighing approximately 20-25 grams) were removed from their home cage and weighed, then placed in a clear Plexiglas™ observation box for an acclimation period of 20-30 minutes. Mice were then removed from the observation chambers and (2S,3R)—N-2-((3-pyridinyl)methyl)-1-azabicyclo[2.2.2]oct-3-yl)-3,5-difluorobenzamide (as the hydrochloride salt in 0.9% saline) (1, 3 or 10 mg/kg s.c. (calculated with respect to the free base)), morphine (5 mg/kg; s.c.) or 0.9% saline vehicle was administered subcutaneously in a volume of 1 mL/kg. Mice were then returned to the chamber for the predetermined pretreatment time of 30 minutes for (2S,3R)—N-2-((3-pyridinyl)methyl)-1-azabicyclo[2.2.2]oct-3-yl)-3,5-difluorobenzamide and morphine.
The subject's assigned paw was grasped gently and formalin solution was injected into the paw intra-dermally in the middle on the dorsal side. Once injected, the subject was immediately returned to its observation chamber and a timer was started to mark the beginning of Phase I. Each subject was videotaped for the entire 40-minute session. […] The time spent licking during that 1 min interval was recorded, and the presence or absence of paw favoring was noted.
For data analyses, phase I of the test was defined as 0 to 5 minutes after formalin injection, and phase II was defined as 20 to 40 minutes after formalin injection. The time spent licking during the 1 minute intervals during those time frames was recorded and graphed as mean±S.E.M. For comparisons across treatment groups, 1-way analyses of variance (ANOVAs) were performed for each phase of the session with treatment as the […] variable. Post-hoc analyses were performed when appropriate to determine specific group differences.

Sprague-Dawley rats = assay: Complete Freund's adjuvant (CFA)-induced thermal hyperalgesia; format: in vivo, rat; conditions: reference standard, 3 mg/kg s.c., 1 hour after dosing
From the text: Briefly, adult male Sprague-Dawley rats (BioLasco, Taiwan) weighing 180±20 g on receipt were randomly assigned to treatment groups of n=8 per group. […] A subject was placed within a plastic box atop an elevated glass floor and a light beam located under the glass floor was directed at the plantar surface of the right hind paw. The time required for the animal to withdraw the paw from the thermal stimulus was automatically recorded. The intensity of the light was adjusted to evoke an average group baseline latency from 12-14 seconds (pre-CFA) and a cut-off latency of 20 seconds was imposed. The latency for paw withdrawal was obtained for each rat and defined as the heat pain threshold.
Test substance, morphine and vehicle were administered by subcutaneous (s.c.) injection at time 0. The post-treatment level of thermal hyperalgesia was then measured at 60 minutes post-treatment. One-way ANOVA followed by Dunnett's test was applied for comparison between test substance treated groups and vehicle control group. Activity was considered significant at the P<0.05 level.

[3] = Aqueous solubility (salt screen); conditions: target 10 mg/ml at 25° C. unbuffered
db/db mouse = assay: Murine model of type 2 diabetes mellitus (db/db mouse); format: in vivo; conditions: MLA 3 mg/kg daily by gavage with 1.0 mg/kg test article
From the text: The db/db mouse, a well established model of type 2 diabetes mellitus, is a leptin-deficient mutant that expresses an obese phenotype and also commonly expresses metabolic symptoms including hyperglycemia, hyperlipidemia and hyperinsulinemia (Halaas et al., 1995 and Lee et al., 1996). This experimental animal model of diabetes was employed in a study designed to determine the effects of (2S,3R)—N-2-((3-pyridinyl)methyl)-1-azabicyclo[2.2.2]oct-3-yl)-3,5-difluorobenzamide on body mass and several additional metabolic parameters.
In this study, (2S,3R)—N-2-((3-pyridinyl)methyl)-1-azabicyclo[2.2.2]oct-3-yl)-3,5-difluorobenzamide was repeatedly administered orally (via gavage) at 1.0 mg/kg once daily starting from the age of approximately 3 weeks and continuing throughout the 7-week study. Nondiabetic heterozygote littermate mice (db/+; designated “Db”) were used as controls. Body weight and food intake were determined twice weekly. The α7 antagonist methyllycaconitine (MLA) was also given concurrently via gavage at 3 mg/kg daily to selected cohorts of db/db (designated “db”) or db/+mice. At the end of the 7-week dosing regimen, total growth rates (overall body weight gain) and average daily food intake were calculated. In addition, glucose levels were assessed in mice fasted overnight. Furthermore, blood sample analytes from mice fasted overnight were collected for measurements of tumor necrosis factor-a (TNF-α), triglycerides and glycosylated hemoglobin (HbA1c). All data are expressed as mean±SEM. For each parameter investigated, differences among all groups were compared by one-way ANOVA with post-hoc Neuman-Keuls multiple comparison test.

NCC1(CC(=O)O)CCCCC1 [gabapentin, reference compound]
Paw withdrawal force post treatment, median ([1]; study days 14/16): 60 g | Paw withdrawal force post treatment, mean±SEM ([1]; study days 14/16, pre treatment 22.77±3.77 g, vehicle 26.61±4.41 g): 45.62 ± 4.24 g | Paw withdrawal force post treatment, median ([1]; study days 21/23): 60 g | Paw withdrawal force post treatment, mean±SEM ([1]; study days 21/23, pre treatment 28.23±4.91 g, vehicle 20.46±3.31 g): 50.88 ± 4.12 g | Tactile allodynia (Von Frey) ([1]; positive control, all treatment days, vs pretreatment and vehicle, p<0.01): reversed the tactile allodynia significantly

Cc1ccc(S(=O)(=O)O)cc1 [p-Toluene sulfonic acid]
LogP [2]: 0.93

CN1CC[C@]23c4c5ccc(O)c4O[C@H]2[C@@H](O)C=C[C@H]3[C@H]1C5 [morphine, reference compound]
Time spent licking, phase I and phase II (CD-1 mice): efficacious in both phases of the test | Analgesic effect on CFA-induced thermal hyperalgesia (Sprague-Dawley rats): significant analgesic activity

O=S(=O)(O)c1ccccc1 [Benzene sulfonic acid]
LogP [2]: 0.47

CCC(=O)O [Propionic acid]
LogP [2]: 0.25

N[C@@H](CC(=O)O)C(=O)O [L-Aspartic acid]
LogP [2]: −0.67

O=C(O)/C=C/C(=O)O [Fumaric acid]
LogP [2]: −0.01

Cl.O=C(N[C@@H]1C2CCN(CC2)[C@H]1Cc1cccnc1)c1cc(F)cc(F)c1 [Hydrochloride mono salts]
Aqueous Solubility [3]: >10000 µg/mL

O=C(O)/C=C\C(=O)O [Maleic acid]
LogP [2]: −0.01

O=C(O)[C@H](O)[C@@H](O)[C@H](O)[C@H](O)CO [D-Gluconic acid]
LogP [2]: −3.18

O=C(O)CNC(=O)c1ccccc1 [Hippuric acid]
LogP [2]: 0.31

CCN1C[C@]2(COC(=O)c3ccccc3N3C(=O)C[C@H](C)C3=O)CC[C@H](OC)[C@@]34[C@@H]5C[C@H]6[C@H](OC)[C@@H]5[C@](O)(C[C@@H]6OC)[C@@](O)([C@@H](OC)[C@H]23)[C@@H]14 [MLA, methyllycaconitine, reference compound]
Weight gain on co-administration of MLA with the difluorobenzamide (db/db mouse; FIG. 15): failed to show the reduced weight gain | Daily average food consumption on co-administration of MLA with the difluorobenzamide (db/db mouse; FIG. 16): failed to show the reduced daily average food consumption | Reversal of the fasting plasma glucose effect by co-administration of MLA (db/db mouse; FIG. 17): not reversed | Effect of MLA co-administration on the reduction in glycosylated HbA1c (db/db mouse; FIG. 18): attenuated | Effect of MLA co-administration on the TNF alpha reduction (db/db mouse; FIG. 19): inhibited | Effect of MLA co-administration on the reduction in triglycerides (db/db mouse; FIG. 20): not attenuated

O=C(O)c1ccc2ccccc2c1O [1-Hydroxy-2-Naphthoic acid]
LogP [2]: 3.29

O=C(N[C@@H]1C2CCN(CC2)[C@H]1Cc1cccnc1)c1cc(F)cc(F)c1.O=P(O)(O)O [Phosphate mono salts]
Aqueous Solubility [3]: >10000 µg/mL

O=C(N[C@@H]1C2CCN(CC2)[C@H]1Cc1cccnc1)c1cc(F)cc(F)c1.O=C(O)/C=C/C(=O)O [Fumarate mono salt]
Aqueous Solubility [3]: >10000 µg/mL
